Paper PMC7926793, “Synthesis and Biological Evaluation of 1-(Diarylmethyl)-1H-1,2,4-triazoles and 1-(Diarylmethyl)-1H-imidazoles as a Novel Class of Anti-Mitotic Agent for Activity in Breast Cancer” (Pharmaceuticals, 2021)

Key:
[1] = test system: MCF-7 human breast cancer cells; test: alamarBlue cell viability assay; format: cell-based; settings: Homo sapiens, 72 h; for IC50: MCF7, 72 h, alamarBlue, read-out: Antiproliferative Activity MCF-7 Cells IC50
Method: (§1) The human breast carcinoma cell line MCF-7 was purchased from the European Collection of Animal Cell Cultures (ECACC) and cultured in Eagles minimum essential medium with 10% foetal bovine serum, 2 mM L-glutamine, and 100 μg/mL penicillin/streptomycin. The medium was supplemented with 1% non-essential amino acids. The human breast carcinoma cell line MDA-MB-231 was purchased from the ECACC. MDA-MB-231 cells were maintained in Dulbecco’s modified Eagle’s medium (DMEM) supplemented with 10% (v/v) foetal bovine serum, 2 mM L-glutamine, and 100 μg/mL penicillin/streptomycin (complete medium). HL-60 cells were derived from a patient with acute myeloid leukaemia and were obtained from the ECACC (Salisbury, UK). Cells were cultured in RPMI-1640 Glutamax medium supplemented with 10% FCS media and 100 μg/mL penicillin/streptomycin. MCF-10A cells were obtained as a kind gift from Dr Susan McDonnell, School of Chemical and Bioprocess Engineering, University College Dublin and were cultured in Dulbecco’s Modified Eagle Medium: Nutrient Mixture F-12 (DMEM/F12; Gibco) supplemented with 5% horse serum (Invitrogen), 20 ng mL^−1 epidermal growth factor (Merck Millipore), 0.5 μg mL^−1 hydrocortisone (Sigma,-Aldrich, Arklow, Co. Wicklow, Ireland), 100 ng mL^−1 cholera toxin (Sigma, Aldrich, Arklow, Co. Wicklow, Ireland), 10 μg mL^−1 insulin (Sigma, Aldrich, Arklow, Co. Wicklow, Ireland), and penicillin/streptomycin 5000 U mL^−1 (1%)(Gibco, Biosciences, 3 Charlemont Terrace, Crofton Road, Dun Laoghaire, Co Dublin, A96 K7H7, Ireland). Cells were maintained at 37 °C in 5% CO2 in a humidified incubator. All cells were sub-cultured 3 times/week by trypsinisation using TrypLE Express (1×).
(§2) Cells were seeded at a density of 2.5 × 10^4 cells/well (MCF-7, MDA-MB-231, MCF-10A cells) and 1 × 10^4 cells/well (HL-60) in 96-well plates (200 μL per well). After 24 h, cells were then treated with either medium alone, vehicle control (1% ethanol (v/v)) or with serial dilutions of CA-4 (4a), phenstatin (7a) or selected compounds (0.001–100 μM) in triplicate. Cell proliferation for MCF-7, MDA-MB-231, and MCF-10A cells was analysed using the alamarBlue assay (Invitrogen Corp.) according to the manufacturer’s instructions. After 67–69 h, alamarBlue (10% (v/v)) was added to each well, and plates were incubated for 3–5 h at 37 °C in the dark. Fluorescence was read using a 96-well fluorimeter with excitation at 530 nm and emission at 590 nm. Results were expressed as percentage viability relative to vehicle control (100%).

[2] = test system: MDA-MB-231 human breast cancer cells; test: alamarBlue cell viability assay; format: cell-based; settings: Homo sapiens, MDA-MB-231, 72 h, read-out: Antiproliferative Activity MDA-MB-231 Cells IC50
Method: as §1, §2

HL-60 leukaemia cells = test: cell viability assay; format: cell-based; settings: Homo sapiens, read-out: Antiproliferative Activity HL-60 Cells IC50
Method: as §1, with “Cells were maintained at 37 °C in 5% CO2 in a humidified incubator. All cells were sub-cultured 3 times/week by trypsinisation using TrypLE Express (1×).” left out
Cells were seeded at a density of 2.5 × 10^4 cells/well (MCF-7, MDA-MB-231, MCF-10A cells) and 1 × 10^4 cells/well (HL-60) in 96-well plates (200 μL per well). […] Cell proliferation for MCF-7, MDA-MB-231, and MCF-10A cells was analysed using the alamarBlue assay (Invitrogen Corp.) according to the manufacturer’s instructions. […] Fluorescence was read using a 96-well fluorimeter with excitation at 530 nm and emission at 590 nm. Results were expressed as percentage viability relative to vehicle control (100%).

[3] = test system: tubulin (microtubule network) in MCF-7 cells; test: immunofluorescence confocal microscopy of microtubule network; format: cell-based, human; settings: 1 μM, 16 h
Method: Confocal microscopy was used to study the effects of drug treatment on MCF-7 cytoskeleton. For immunofluorescence, MCF-7 cells were seeded at 1 × 10^5 cells/mL on eight chamber glass slides (BD Biosciences). […] Following treatment, cells were gently washed in PBS, fixed for 20 min with 4% paraformaldehyde in PBS, and permeabilised in 0.5% Triton X-100. Following washes in PBS containing 0.1% Tween (PBST), cells were blocked in 5% bovine serum albumin diluted in PBST. […] Following washes in PBST, the cells were mounted in Ultra Cruz Mounting Media (Santa Cruz Biotechnology, Santa Cruz, CA) containing 4,6-diamino-2-phenolindol dihydrochloride (DAPI). Images were captured by Leica SP8 confocal microscopy with Leica application suite X software. All images in each experiment were collected on the same day using identical parameters. Experiments were performed on three independent occasions.

[4] = MCF7, read-out: cell viability (viable cells)

## COc1cc(C(c2ccccc2)n2cncn2)cc(OC)c1OC (stereo not drawn) [16e, 1-(Phenyl(3,4,5-Trimethoxyphenyl)Methyl)-1H-1,2,4-Triazole]
other
  melting point: 139 to 140 °C

## COc1ccc(C(c2ccc(C#N)cc2)n2cncn2)cc1O (stereo not drawn) [19h, 4-((3-Hydroxy-4-Methoxyphenyl)(1H-1,2,4-Triazol-1-yl)Methyl)Benzonitrile]
[1]
  IC50: > 100000 nM
other
  melting point: 168 to 170 °C

## Oc1ccc(C(c2ccccc2)n2cncn2)cc1 (stereo not drawn) [13n, 4-(Phenyl(1H-1,2,4-Triazol-1-yl)Methyl)Phenol]
other
  melting point: 189 to 191 °C

## CCOc1ccc(C(c2ccccc2)n2cncn2)cc1 (stereo not drawn) [13l, 1-((4-Ethoxyphenyl)(Phenyl)Methyl)-1H-1,2,4-Triazole]
other
  melting point: 98 to 100 °C

## Brc1ccc(C(c2ccccc2)n2ccnc2)cc1 (stereo not drawn) [20c, 1-((4-Bromophenyl)(Phenyl)methyl)-1H-Imidazole]
other
  melting point: 126 to 128 °C

## COc1ccc(C(c2ccccc2)N2CCCC2)cc1 (stereo not drawn) [25d]
[1]; [4]
  viability at 1 µM: 80%

## O=C(Nc1ccc(C(c2ccccc2)n2cncn2)cc1)C(F)(F)F (stereo not drawn) [13i, 2,2,2-Trifluoro-N-(4-(Phenyl(1H-1,2,4-Triazol-1-yl)Methyl)Phenyl)Acetamide]
other
  melting point: 143 to 145 °C

## COc1ccc(C(c2cc(OC)c(OC)c(OC)c2)N2CCN(c3ccc(C)cc3)CC2)cc1 (stereo not drawn) [27f]
[1]; MCF7, 0.1 μM, read-out: cell viability (viable cells)
  viability at 0.1 µM: 84%
[1]; [4]
  viability at 1 µM: 76%
  viability at 10 µM: 42%

## c1ccc(COc2ccc(C(c3ccccc3)n3cncn3)cc2)cc1 (stereo not drawn) [13j, 1-((4-(Benzyloxy)Phenyl)(Phenyl)Methyl)-1H-1,2,4-Triazole]
other
  melting point: 132 to 134 °C

## Oc1ccc(C(c2ccc(O)cc2)n2cncn2)cc1 [13o]
[1]; [4]
  viability at 1 µM: 68%

## N#Cc1ccc(C(c2ccc(OCc3ccccc3)cc2)n2cncn2)cc1 (stereo not drawn) [19g, 4-((4-(Benzyloxy)Phenyl)(1H-1,2,4-Triazol-1-yl)Methyl)Benzonitrile]
other
  melting point: 79 to 81 °C

## N#Cc1ccc(C(c2ccc(O)cc2)n2cncn2)cc1 (stereo not drawn) [19i, 4-((4-Hydroxyphenyl)(1H-1,2,4-Triazol-1-yl)Methyl)Benzonitrile]
[1]
  IC50: > 100000 nM

## COc1ccc(C(c2cc(OC)c(OC)c(OC)c2)N2CCN(c3ccccc3)CC2)cc1OCc1ccccc1 (stereo not drawn) [27g, 1-((3-(Benzyloxy)-4-Methoxyphenyl)(3,4,5-Trimethoxyphenyl)Methyl)-4-Phenylpiperazine]
other
  melting point: 124 to 126 °C

## Nc1ccc(C(c2ccccc2)n2cncn2)cc1 (stereo not drawn) [13m, 4-(Phenyl(1H-1,2,4-Triazol-1-yl)Methyl)Aniline]
[1]; [4]
  viability at 1 µM: 72%
other
  melting point: 149 to 151 °C

## COc1cc(C(c2cc(OC)c(OC)c(OC)c2)n2ccnc2)cc(OC)c1OC [21i, 1-(Bis(3,4,5-Trimethoxyphenyl)Methyl)-1H-Imidazole]
other
  melting point: 154 to 156 °C

## COc1ccc(/C=C\c2cc(OC)c(OC)c(OC)c2)cc1O [CA-4, reference compound]
[1]
  IC50: 3.9 ± 0.32 nM
[1]; [4]
  viability at 1 µM: 24%
[2]
  IC50: 43 nM
HL-60 leukaemia cells
  IC50: 1.9 ± 0.5 nM

## COc1ccc(C(c2cc(OC)c(OC)c(OC)c2)n2cncn2)cc1 (stereo not drawn) [16c]
[1]; [4]
  viability at 1 µM: 75%

## Fc1ccc(C(c2ccccc2)n2ccnc2)cc1 (stereo not drawn) [20d]
[1]; [4]
  viability at 1 µM: 67%

## Fc1ccc(C(c2ccccc2)n2cncn2)cc1 (stereo not drawn) [13c, 1-((4-Fluorophenyl)(Phenyl)Methyl)-1H-1,2,4-Triazole]
other
  melting point: 96 to 99 °C

## COc1cc(C(c2ccc(F)cc2)n2cncn2)cc(OC)c1OC (stereo not drawn) [16g]
[1]; [4]
  viability at 1 µM: 77%

## COc1ccc(C(c2cc(OC)c(OC)c(OC)c2)n2cncn2)cc1OCc1ccccc1 (stereo not drawn) [19a, 1-((3-(Benzyloxy)-4-Methoxyphenyl)(3,4,5-Trimethoxyphenyl)Methyl)-1H-1,2,4-Triazole]
other
  melting point: 98 to 100 °C

## O=[N+]([O-])c1ccc(C(c2ccccc2)n2ccnc2)cc1 (stereo not drawn) [20b]
[1]; [4]
  viability at 1 µM: 73%

## CC(=O)O[C@H]1C(=O)[C@@]2(C)[C@H]([C@H](OC(=O)c3ccccc3)[C@]3(O)C[C@H](OC(=O)[C@H](O)[C@@H](NC(=O)c4ccccc4)c4ccccc4)C(C)=C1C3(C)C)[C@]1(OC(C)=O)CO[C@@H]1C[C@@H]2O [paclitaxel, reference compound]
[3]
  effect on microtubule network of MCF-7 cells: Hyperpolymerisation of tubulin

## COc1ccc(C(c2ccc(C#N)cc2)n2cncn2)cc1OCc1ccccc1 (stereo not drawn) [19f, 4-((3-(Benzyloxy)-4-Methoxyphenyl)(1H-1,2,4-Triazol-1-yl)Methyl)Benzonitrile]
other
  melting point: 91 to 93 °C

## COc1ccc(C(c2cc(OC)c(OC)c(OC)c2)N2CCN(c3ccccc3)CC2)cc1O (stereo not drawn) [27i, 2-Methoxy-5-((4-Phenylpiperazin-1-yl)(3,4,5-Trimethoxyphenyl)Methyl)Phenol]
[1]; [4]
  viability at 10 µM: 48%

## Brc1ccc(C(c2ccccc2)N2CCCC2)cc1 (stereo not drawn) [25b, 1-((4-Bromophenyl)(Phenyl)methyl)Pyrrolidine]
other
  melting point: 70 to 72 °C
